MIC and IC50 data for 20 compounds are collected here from patent publication US20180327367A1, “MACROCYCLIC BROAD SPECTRUM ANTIBIOTICS” (priority 2015, published 2018).

For assay [1], the system named is Escherichia coli MC4100 harboring the IMP4213 (E. coli IMP). Briefly: microbe, parasite or virus in culture. The assay is classed as cell-based. As to conditions: Escherichia coli, 22 h, read-out: MIC (μg/mL) E. coli IMP, E. coli MC4100 IMP4213, increased outer-membrane permeability; 35° C., 22 hours. Summed up: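 Top conc 4 μg/mL (protocol 2) or 0.5 μg/mL (protocol 3), 2-fold series, 10 points. Final OD600 0.0005; 22 h, 35° C. IMP4213 = permeable outer membrane.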

Assay [2] addresses T1, SpsB (Staphylococcus aureus signal peptidase) (Staphylococcus aureus, UniProt P0A070).
T1 construct: This assay uses a suspension of Staphylococcus aureus cells as a source of SpsB instead of recombinant SpsB protein; endogenous in cells; host or cells: S. aureus, USA300 background, overexpressing SpsB (whole-cell suspension from frozen pellets)
Briefly: cell-based. The assay is classed as biochemical. The following applies: SpsB IC50, whole-cell S. aureus (USA300 background, overexpressing SpsB) as SpsB source; fluorogenic peptide substrate, kinetic read 30 min. The method in brief: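 Cleavage of an internally quenched (Dabcyl)βAla-KPAKAAE(Edans) peptide, added as 20 μM solution mixed 1:1 with cells, was followed for 30 min at 340/490 nm. SpsB came from a suspension of SpsB-overexpressing USA300 S. aureus in Tween-80-containing PBS buffer. Slopes plotted against 3-fold compound dilutions gave IC50.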

Assay [3] has as its system Escherichia coli ATCC 25922. Nature of the assay: Minimum inhibitory concentration, broth micro-dilution (CLSI), E. coli. The assay is classed as cell-based. As to conditions: Escherichia coli, ATCC25922, 22 h, E. coli ATCC 25922; 35° C., 22 hours; read-out: MIC (μg/mL) E. coli. A general note: Broth dilution looks for growth in wells or tubes with falling amounts of substance.

The test system of assay [4] is Methicillin Resistant Staphylococcus aureus strain USA 300, NRS384. Nature of the assay: Minimum inhibitory concentration, broth micro-dilution (CLSI), S. aureus. As to conditions: Staphylococcus aureus, MRSA / NRS 384 / USA300, 22 h, MRSA USA 300 NRS384; 35° C., 22 hours; read-out: MIC (μg/mL) S. aureus. The assay is classed as cell-based. The method in brief: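 CLSI broth microdilution in cation-adjusted Mueller Hinton Broth with 0.002% Tween-80; inoculum final OD600 0.0005, 22 hours at 35° C. Ten 2-fold dilutions starting at 4 μg/mL (protocol 2) or 0.5 μg/mL (protocol 3).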

A word on the IC50: it is the concentration that gives 50% inhibition. The low end stands for inhibition by little substance, the high end for a need for much substance.

≈ marks a conversion by molar mass, not a printed value.

T1 sequence (P0A070 whole entry): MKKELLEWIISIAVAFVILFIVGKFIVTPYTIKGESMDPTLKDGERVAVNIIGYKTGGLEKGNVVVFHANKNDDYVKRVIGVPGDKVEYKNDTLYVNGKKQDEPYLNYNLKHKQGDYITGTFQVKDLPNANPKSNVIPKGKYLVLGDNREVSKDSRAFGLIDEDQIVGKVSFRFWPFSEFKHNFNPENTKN

With `CCCCCCCc1cc(F)c(C(=O)N[C@@H](CCN)C(=O)N(C)[C@@H]2C(=O)N[C@@H](C)C(=O)N[C@H](C(=O)NCC#N)Cc3ccc(OCCN)c(c3)-c3cc2ccc3OCCN)c(F)c1` [Compound 190], the results for the MIC in assay [1], in assay [3] and in assay [4] were 0.02 µg/mL (≈ 0.0228 µM), 0.31 µg/mL (≈ 0.354 µM) and 0.063 µg/mL (≈ 0.0719 µM), respectively. The IC50 in assay [2] was 0.7 nM.

For the compound `CCCCCCCc1ccc(C(=O)N[C@@H](CCN)C(=O)N(C)[C@@H]2C(=O)N[C@@H](C)C(=O)N[C@H](C(=O)NCC#N)Cc3ccc(OCCN)c(c3)-c3cc2ccc3OCCN)c(C(F)(F)F)c1` [Compound 191], the MIC in assay [1] was determined as 0.016 µg/mL (≈ 0.0176 µM); in assay [3], 0.75 µg/mL (≈ 0.826 µM); in assay [4], 0.031 µg/mL (≈ 0.0341 µM). The 50% inhibitory concentration (IC50) in assay [2] was determined as 0.62 nM.

Turning to `CCCCCCCCc1ccc(C(=O)N[C@@H](CCN)C(=O)N(C)[C@@H]2C(=O)N[C@@H](C)C(=O)N[C@H](C(=O)NCC#N)Cc3ccc(OCCN)c(c3)-c3cc2ccc3OCCN)c(C(F)(F)F)c1` [Compound 192], the MIC in assay [1] is 0.012 µg/mL (≈ 0.013 µM); in assay [3] it was 0.25 µg/mL (≈ 0.271 µM); in assay [4], 0.063 µg/mL (≈ 0.0683 µM). The compound further had a half-maximal inhibitory concentration (IC50) in assay [2] of 0.89 nM.

For the compound `CCCCCCCCc1ccc(C(=O)N[C@@H](CCN)C(=O)N(C)[C@@H]2C(=O)N[C@@H](C)C(=O)N[C@H](C(=O)NCC#N)Cc3ccc(OCCN)c(c3)-c3cc2ccc3OCCN)c(O)c1` [Compound 193], the MIC in assay [1] was determined as 0.047 µg/mL (≈ 0.054 µM); in assay [3] it was 0.5 µg/mL (≈ 0.575 µM); in assay [4], 0.063 µg/mL (≈ 0.0724 µM). The compound further registered an IC50 in assay [2] of 0.93 nM.

Turning to `CCCCCCCc1ccc(C(=O)N[C@@H](CCCN)C(=O)N(C)[C@@H]2C(=O)N[C@@H](C)C(=O)N[C@H](C(=O)NCC#N)Cc3ccc(OCCN)c(c3)-c3cc2ccc3OCCN)c(C)c1` [Compound 194], the MIC stood at 0.0078 µg/mL (≈ 0.00899 µM) in assay [1], 0.25 µg/mL (≈ 0.288 µM) in assay [3] and 0.016 µg/mL (≈ 0.0184 µM) in assay [4]. Also, the IC50 in assay [2] was found to be 0.83 nM.

Turning to `CCCCCCc1ccc(C(=O)N[C@@H](CCN)C(=O)N(C)[C@@H]2C(=O)N[C@@H](C)C(=O)N[C@H](C(=O)NCC#N)Cc3ccc(OCCN)c(c3)-c3cc2ccc3OCCN)cc1` [Compound 195], the MIC is 0.0078 µg/mL (≈ 0.00944 µM) in assay [1], 0.5 µg/mL (≈ 0.605 µM) in assay [3] and 0.063 µg/mL (≈ 0.0763 µM) in assay [4]. In assay [2], this compound had a concentration for half-maximal inhibition (IC50) of 1.4 nM.

Regarding `CCCCCc1ccc(C(=O)N[C@@H](CCN)C(=O)N(C)[C@@H]2C(=O)N[C@@H](C)C(=O)N[C@H](C(=O)NCC#N)Cc3ccc(OCCN)c(c3)-c3cc2ccc3OCCN)c(C)c1` [Compound 196], the figures for the MIC in assay [1], in assay [3] and in assay [4] were 0.013 µg/mL (≈ 0.0157 µM), 0.67 µg/mL (≈ 0.811 µM) and 0.094 µg/mL (≈ 0.114 µM), respectively. In assay [2], this compound displayed an IC50 of 1.1 nM.

As for `CCCCCCc1ccc(C(=O)N[C@@H](CCN)C(=O)N(C)[C@@H]2C(=O)N[C@@H](C)C(=O)N[C@H](C(=O)NCC#N)Cc3ccc(OCCN)c(c3)-c3cc2ccc3OCCN)c(C)c1` [Compound 197], the MIC in assay [1] was determined as 0.011 µg/mL (≈ 0.0131 µM); in assay [3] it was 0.31 µg/mL (≈ 0.369 µM); in assay [4], 0.078 µg/mL (≈ 0.0929 µM). The compound also had a half-inhibitory concentration (IC50) in assay [2] below 0.5 nM.

Turning to `CCCCCCCc1ccc(C(=O)N[C@@H](CCN)C(=O)N(C)[C@@H]2C(=O)N[C@@H](C)C(=O)N[C@H](C(=O)NCC#N)Cc3ccc(OCCN)c(c3)-c3cc2ccc3OCCN)c(C)c1` [Compound 198], the MIC in assay [1] was determined as 0.018 µg/mL (≈ 0.0211 µM); in assay [3] it was 0.24 µg/mL (≈ 0.281 µM); in assay [4], 0.063 µg/mL (≈ 0.0738 µM). This compound also showed an IC50 in assay [2] of 0.72 nM.

As for `CCCCCCc1ccc(C(=O)N[C@@H](CCCCN)C(=O)N(C)[C@@H]2C(=O)N[C@@H](C)C(=O)N[C@H](C(=O)NCC#N)Cc3ccc(OCCN)c(c3)-c3cc2ccc3OCCN)c(C)c1` [Compound 199], the MIC was found to be 0.031 µg/mL (≈ 0.0357 µM) in assay [1], 3 µg/mL (≈ 3.46 µM) in assay [3] and 0.031 µg/mL (≈ 0.0357 µM) in assay [4]. The compound also displayed an IC50 in assay [2] of 0.73 nM.

As for `CCCCCCc1ccc(C(=O)N[C@@H](CCN)C(=O)N(C)[C@@H]2C(=O)N[C@@H](C)C(=O)N[C@H](C(=O)NCC#N)Cc3ccc(OCCN)c(c3)-c3cc2ccc3OCCN)cn1` [Compound 201], the MIC in assay [1] was determined as 0.031 µg/mL (≈ 0.0375 µM); in assay [3], 2 µg/mL (≈ 2.42 µM); in assay [4] it was 0.19 µg/mL (≈ 0.23 µM). The same compound gave an IC50 in assay [2] of 1.4 nM.

Regarding `CCCCCCCc1ccc(C(=O)N[C@@H](CN)C(=O)N(C)[C@@H]2C(=O)N[C@@H](C)C(=O)N[C@H](C(=O)NCC#N)Cc3ccc(OCCN)c(c3)-c3cc2ccc3OCCN)c(C)c1` [Compound 202], the MIC is 0.016 µg/mL (≈ 0.019 µM) in assay [1], 0.25 µg/mL (≈ 0.298 µM) in assay [3] and 0.031 µg/mL (≈ 0.0369 µM) in assay [4]. This compound also came in with a concentration for half-maximal inhibition (IC50) in assay [2] of 0.66 nM.

As to `CCCCCCCc1cc(C)c(C(=O)N[C@@H](CCN)C(=O)N(C)[C@@H]2C(=O)N[C@@H](C)C(=O)N[C@H](C(=O)NCC#N)Cc3ccc(OCCN)c(c3)-c3cc2ccc3OCCN)cc1F` [Compound 203], the MIC came to 0.012 µg/mL (≈ 0.0138 µM) in assay [1], 0.13 µg/mL (≈ 0.149 µM) in assay [3] and 0.031 µg/mL (≈ 0.0355 µM) in assay [4]. Also, it took 0.72 nM to reach half-maximal inhibition in assay [2] (IC50).

`Cc1cc(CCC2CCCCC2)ccc1C(=O)N[C@@H](CCN)C(=O)N(C)[C@@H]1C(=O)N[C@@H](C)C(=O)N[C@H](C(=O)NCC#N)Cc2ccc(OCCN)c(c2)-c2cc1ccc2OCCN` [Compound 204]: the MIC in assay [1] was found to be 0.0078 µg/mL (≈ 0.00901 µM); in assay [3], 0.19 µg/mL (≈ 0.219 µM); in assay [4], 0.031 µg/mL (≈ 0.0358 µM). The concentration for half-maximal inhibition (IC50) in assay [2] was 1.2 nM.

Turning to `CCCCCCCc1cc(C)c(C(=O)N[C@@H](CCN)C(=O)N(C)[C@@H]2C(=O)N[C@@H](C)C(=O)N[C@H](C(=O)NCC#N)Cc3ccc(OCCN)c(c3)-c3cc2ccc3OCCN)c(Cl)c1` [Compound 205], the MIC is 0.016 µg/mL (≈ 0.018 µM) in assay [1], 0.25 µg/mL (≈ 0.281 µM) in assay [3] and 0.063 µg/mL (≈ 0.0709 µM) in assay [4]. In assay [2], this compound returned an IC50 of 0.85 nM.

`CCCCc1ccc(C(=O)N[C@@H](CCN)C(=O)N(C)[C@@H]2C(=O)N[C@@H](C)C(=O)N[C@H](C(=O)NCC#N)Cc3ccc(OCCN)c(c3)-c3cc2ccc3OCCN)c(C)c1` [Compound 208]: the results for the MIC in assay [1], in assay [3] and in assay [4] were 0.029 µg/mL (≈ 0.0357 µM), 1.3 µg/mL (≈ 1.6 µM) and 0.25 µg/mL (≈ 0.308 µM), respectively. The same compound showed a concentration for half-maximal inhibition (IC50) in assay [2] of 0.99 nM.

In the case of `CCCCCCCCc1ccc(C(=O)N[C@@H](CCN)C(=O)N(C)[C@@H]2C(=O)N[C@@H](C)C(=O)N[C@H](C(=O)NCC#N)Cc3ccc(OCCN)c(c3)-c3cc2ccc3OCCN)c(OC)c1` [Compound 209], the MIC was determined as 0.094 µg/mL (≈ 0.106 µM) in assay [1], 2 µg/mL (≈ 2.26 µM) in assay [3] and 0.19 µg/mL (≈ 0.215 µM) in assay [4]. This compound also gave a half-maximal inhibitory concentration (IC50) in assay [2] of 0.92 nM.

As for `CCCCCCCCc1ccc(C(=O)N[C@@H](CCN)C(=O)N(C)[C@@H]2C(=O)N[C@@H](C)C(=O)N[C@H](C(=O)NCC#N)Cc3ccc(OCCN)c(c3)-c3cc2ccc3OCCN)c(Cl)c1` [Compound 210], the MIC worked out at 0.029 µg/mL (≈ 0.0326 µM) in assay [1], 0.11 µg/mL (≈ 0.124 µM) in assay [3] and 0.094 µg/mL (≈ 0.106 µM) in assay [4]. Further, in assay [2], the IC50 was found to be 0.8 nM.

As to `CCCCCCCCc1ccc(C(=O)N[C@@H](CCN)C(=O)N(C)[C@@H]2C(=O)N[C@@H](C)C(=O)N[C@H](C(=O)NCC#N)Cc3ccc(OCCN)c(c3)-c3cc2ccc3OCCN)c(S(C)(=O)=O)c1` [Compound 212], the MIC in assay [1] is 0.047 µg/mL (≈ 0.0504 µM); in assay [3] it was 2 µg/mL (≈ 2.15 µM); in assay [4] it was 0.031 µg/mL (≈ 0.0333 µM). For the same compound, the half-maximal inhibitory concentration (IC50) in assay [2] came out at 0.62 nM.

For `CCCCCCCCc1nc(C)c(C(=O)N[C@@H](CCN)C(=O)N(C)[C@@H]2C(=O)N[C@@H](C)C(=O)N[C@H](C(=O)NCC#N)Cc3ccc(OCCN)c(c3)-c3cc2ccc3OCCN)s1` [Compound 213], the MIC was determined as 0.023 µg/mL (≈ 0.0263 µM) in assay [1], 2 µg/mL (≈ 2.29 µM) in assay [3] and 0.047 µg/mL (≈ 0.0537 µM) in assay [4]. This compound also displayed an IC50 in assay [2] of 0.64 nM.
